The values below come from article PMC9155639 (Journal of Antimicrobial Chemotherapy, 2022).

What is called IC50 is the midpoint of a concentration-inhibition curve. For orientation: Ki means a dissociation constant, usually derived from enzyme kinetics or from competition with a known ligand. One may read the Kd as the concentration at which binding is half-saturated.

Molecules are shown by their SMILES.

Data set [1] deals with T1, BpMip (Burkholderia pseudomallei, UniProt Q63J95). In words: biochemical.
T1 sequence (Q63J95 whole entry, added parts left off): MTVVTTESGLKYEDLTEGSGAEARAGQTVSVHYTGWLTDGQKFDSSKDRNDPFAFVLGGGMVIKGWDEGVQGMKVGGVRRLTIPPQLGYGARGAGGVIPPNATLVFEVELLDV
In data set [2] the target is T1, BpMip. In words: biochemical. Format: binding, B. pseudomallei.
Data set [3] relates to B. pseudomallei K96243.

Consider `COc1cc(NC(=O)CCNC(=O)[C@@H]2CCCCN2S(=O)(=O)Cc2ccccc2)cc(OC)c1OC` [SF339, (S)-1-(benzylsulfonyl)-N-(3-oxo-3-((3,4,5-trimethoxyphenyl)amino)propyl)piperidine-2-carboxamide], for which it took 260 nM to reach half-maximal inhibition in data set [1] (IC50). In data set [1] (Ki (μM) Mean), this compound returned an inhibition constant Ki of 0.45 µM. In data set [2], this compound yielded a Kd of 10900 ± 200 nM. For the same compound, the “effect on B. pseudomallei-induced cytotoxicity” value in data set [3] was “no statistically significant difference”.
